According to patent publication US10894786B2, “Substituted pyrazole derivatives as selective CDK12/13 inhibitors” (Aurigene Discovery Technologies Limited, priority 2018, dated 2021):
Read-outs that look alike come from different tables or passages of the source.

Experiments:
CDK12 [1] = target: T1, CDK12 (Homo sapiens (Human), UniProt Q9NYV4); experiment: CDK12 plate based target engagement assay in Jurkat cells; assay type: cell-based; conditions: for CDK12 Target Occupancy (Tocc50) μM in Jurkat cells: 6 hours
Description: Jurkat cells were treated with varying concentrations of the compound for 6 hours. The DMSO concentration was maintained at 0.1%. Cells were harvested and lysed. 200 μg of the lysate was incubated with 1 μM Bio-THZ531 in the presence of 1 mM DTT and incubated on a rocker at 4° C. overnight. 100 μL of this sample was added to pre-washed streptavidin coated plates and incubated at room temperature on a rocker for 2 hours. The plates were washed and incubated with CDK12 antibody for overnight at 4° C. Next day the plate was washed and incubated for 2 hours with HRP labelled anti rabbit secondary antibody. Bio-THZ531 bound CDK12 was determined using TMB substrate. […] Percentage CDK12 occupancy with the test compound was calculated over untreated control. Occupancy 50 was calculated by fitting the dose response data to sigmoidal curve fitting equation using GraphPad Prism software V5.

CDK12 [2] = target: T1, CDK12; experiment: Biochemical assay for CDK12 (Kd determination), kinase-tagged phage/qPCR competition binding
Description: Kinase-tagged T7 phage strains were grown in parallel in 24-well blocks in an E. coli host derived from the BL21 strain. E. coli were grown to log-phase and infected with T7 phage from a frozen stock (multiplicity of infection=0.4) and incubated with shaking at 32° C. until lysis (90-150 minutes). The lysates were centrifuged (6,000×g) and filtered (0.2 μm) to remove cell debris. The remaining kinases were produced in HEK-293 cells and subsequently tagged with DNA for qPCR detection. […] The liganded beads were blocked with excess biotin and washed with blocking buffer (SeaBlock (Pierce), 1% BSA, 0.05% Tween 20, 1 mM DTT) to remove unbound ligand and to reduce non-specific phage binding. […] Test compounds were prepared as 40× stocks in 100% DMSO and directly diluted into the assay. All reactions were performed in polypropylene 384-well plates in a final volume of 0.02 ml. […] The kinase concentration in the eluates was measured by qPCR.

CDK13 = CDK13 (Homo sapiens (Human), UniProt Q14004); experiment: Biochemical assay for CDK13, LanthaScreen Eu Kinase Binding Assay; conditions: for IC50: kinase tracer 236 100 nM; for Ratio CDK7/CDK13: ratio of IC50
CDK13, sequence (Q14004 whole entry, looked up, species assumed): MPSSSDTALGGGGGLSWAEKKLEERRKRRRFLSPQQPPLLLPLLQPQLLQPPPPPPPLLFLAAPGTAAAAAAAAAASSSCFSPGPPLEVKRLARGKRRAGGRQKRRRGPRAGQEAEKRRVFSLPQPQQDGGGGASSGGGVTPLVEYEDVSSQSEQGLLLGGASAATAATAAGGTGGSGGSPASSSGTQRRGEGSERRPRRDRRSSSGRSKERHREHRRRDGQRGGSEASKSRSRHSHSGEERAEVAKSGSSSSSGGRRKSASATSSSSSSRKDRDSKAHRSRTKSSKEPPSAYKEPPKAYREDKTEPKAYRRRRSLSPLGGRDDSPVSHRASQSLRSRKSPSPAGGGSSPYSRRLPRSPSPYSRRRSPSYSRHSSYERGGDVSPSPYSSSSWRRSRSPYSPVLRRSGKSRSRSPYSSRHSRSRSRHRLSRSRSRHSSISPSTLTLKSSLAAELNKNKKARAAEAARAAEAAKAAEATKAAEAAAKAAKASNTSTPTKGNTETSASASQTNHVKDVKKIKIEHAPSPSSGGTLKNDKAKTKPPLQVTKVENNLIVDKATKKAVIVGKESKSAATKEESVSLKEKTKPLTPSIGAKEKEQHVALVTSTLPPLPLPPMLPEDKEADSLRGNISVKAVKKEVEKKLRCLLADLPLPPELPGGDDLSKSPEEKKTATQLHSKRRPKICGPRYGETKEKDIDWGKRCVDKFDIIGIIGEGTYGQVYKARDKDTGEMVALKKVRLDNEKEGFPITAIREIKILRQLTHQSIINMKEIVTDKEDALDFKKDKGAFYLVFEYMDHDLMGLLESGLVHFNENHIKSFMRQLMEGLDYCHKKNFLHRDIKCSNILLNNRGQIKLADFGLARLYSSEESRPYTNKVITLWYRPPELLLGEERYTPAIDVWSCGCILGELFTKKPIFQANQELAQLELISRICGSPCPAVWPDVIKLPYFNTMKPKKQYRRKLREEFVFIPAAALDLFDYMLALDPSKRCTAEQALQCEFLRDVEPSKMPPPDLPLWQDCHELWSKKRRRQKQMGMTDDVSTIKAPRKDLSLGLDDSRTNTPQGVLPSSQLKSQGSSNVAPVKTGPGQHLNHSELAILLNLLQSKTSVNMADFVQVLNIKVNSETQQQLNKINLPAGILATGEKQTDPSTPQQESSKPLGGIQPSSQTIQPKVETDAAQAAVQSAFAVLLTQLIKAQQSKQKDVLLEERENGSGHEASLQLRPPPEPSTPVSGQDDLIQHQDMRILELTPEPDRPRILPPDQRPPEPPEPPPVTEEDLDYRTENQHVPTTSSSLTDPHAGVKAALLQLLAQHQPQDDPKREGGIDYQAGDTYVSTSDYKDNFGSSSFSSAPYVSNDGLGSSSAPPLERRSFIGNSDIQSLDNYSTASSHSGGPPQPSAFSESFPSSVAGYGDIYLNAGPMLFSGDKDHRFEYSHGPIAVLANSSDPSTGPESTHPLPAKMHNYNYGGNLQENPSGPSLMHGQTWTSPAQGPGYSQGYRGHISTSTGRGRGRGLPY
CDK13, sequence (O75909 whole entry partner, looked up, species assumed): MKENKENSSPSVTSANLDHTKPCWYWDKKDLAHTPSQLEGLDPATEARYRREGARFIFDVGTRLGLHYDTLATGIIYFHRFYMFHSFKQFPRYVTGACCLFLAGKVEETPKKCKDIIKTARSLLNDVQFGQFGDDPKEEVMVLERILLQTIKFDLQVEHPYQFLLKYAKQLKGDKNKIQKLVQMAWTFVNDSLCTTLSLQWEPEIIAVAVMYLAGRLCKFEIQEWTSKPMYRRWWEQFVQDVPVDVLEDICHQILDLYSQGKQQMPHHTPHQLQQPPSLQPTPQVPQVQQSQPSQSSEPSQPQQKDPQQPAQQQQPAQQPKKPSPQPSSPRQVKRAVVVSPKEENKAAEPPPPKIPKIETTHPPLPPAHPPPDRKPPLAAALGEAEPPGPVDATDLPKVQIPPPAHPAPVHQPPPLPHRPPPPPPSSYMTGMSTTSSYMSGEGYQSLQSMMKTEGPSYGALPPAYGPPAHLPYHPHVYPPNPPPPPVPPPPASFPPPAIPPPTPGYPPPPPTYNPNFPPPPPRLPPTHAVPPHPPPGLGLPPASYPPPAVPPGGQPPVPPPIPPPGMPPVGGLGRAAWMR
Description: Binding of an inhibitor to the kinase competes for binding with the tracer, resulting in a loss of FRET signal.

CDK12 [3] = target: T1, CDK12; experiment: Biochemical assay for CDK12 (IC50 determination), LANCE TR-FRET; conditions: for IC50: ATP 100 μM, 60 min pre-incubation
Description: The inhibitory activity of the test compounds was assessed by the LANCE TR-FRET assay, which detects the ATP-dependent phosphorylation of an ULight-4E-BP1 (Thr37/Thr46) substrate peptide (100 nM) by CDK12 (30 nM). Briefly, the enzyme reaction was run in reaction buffer (25 mM HEPES (pH 7.5), 10 mM MgCl2, 0.01% BSA, 0.01% Triton x, 1 mM DTT). The assay was performed in 384-well plate format. The end concentration of the ATP substrate was 100 μM, and that of the ULight-4E-BP1 (Thr37/Thr46) substrate peptide was 100 nM, and of CDK12 was 30 nM. Pre-incubation of the compound and enzyme was performed for 60 min at room temperature. After 60 min incubation at room temperature, the reaction was terminated by the addition of 40 mM EDTA and 0.5 nM Eu-labeled anti-phospho-eIF4E-binding protein (Thr37/46) antibody in LANCE detection buffer. […] The readout was calculated as (acceptor counts/donor counts)×1000. The IC50 values were derived by fitting a sigmoidal dose-response curve to a plot of assay readout over inhibitor concentration.
Target sequence in this assay (Q9NYV4 whole entry, looked up, species assumed): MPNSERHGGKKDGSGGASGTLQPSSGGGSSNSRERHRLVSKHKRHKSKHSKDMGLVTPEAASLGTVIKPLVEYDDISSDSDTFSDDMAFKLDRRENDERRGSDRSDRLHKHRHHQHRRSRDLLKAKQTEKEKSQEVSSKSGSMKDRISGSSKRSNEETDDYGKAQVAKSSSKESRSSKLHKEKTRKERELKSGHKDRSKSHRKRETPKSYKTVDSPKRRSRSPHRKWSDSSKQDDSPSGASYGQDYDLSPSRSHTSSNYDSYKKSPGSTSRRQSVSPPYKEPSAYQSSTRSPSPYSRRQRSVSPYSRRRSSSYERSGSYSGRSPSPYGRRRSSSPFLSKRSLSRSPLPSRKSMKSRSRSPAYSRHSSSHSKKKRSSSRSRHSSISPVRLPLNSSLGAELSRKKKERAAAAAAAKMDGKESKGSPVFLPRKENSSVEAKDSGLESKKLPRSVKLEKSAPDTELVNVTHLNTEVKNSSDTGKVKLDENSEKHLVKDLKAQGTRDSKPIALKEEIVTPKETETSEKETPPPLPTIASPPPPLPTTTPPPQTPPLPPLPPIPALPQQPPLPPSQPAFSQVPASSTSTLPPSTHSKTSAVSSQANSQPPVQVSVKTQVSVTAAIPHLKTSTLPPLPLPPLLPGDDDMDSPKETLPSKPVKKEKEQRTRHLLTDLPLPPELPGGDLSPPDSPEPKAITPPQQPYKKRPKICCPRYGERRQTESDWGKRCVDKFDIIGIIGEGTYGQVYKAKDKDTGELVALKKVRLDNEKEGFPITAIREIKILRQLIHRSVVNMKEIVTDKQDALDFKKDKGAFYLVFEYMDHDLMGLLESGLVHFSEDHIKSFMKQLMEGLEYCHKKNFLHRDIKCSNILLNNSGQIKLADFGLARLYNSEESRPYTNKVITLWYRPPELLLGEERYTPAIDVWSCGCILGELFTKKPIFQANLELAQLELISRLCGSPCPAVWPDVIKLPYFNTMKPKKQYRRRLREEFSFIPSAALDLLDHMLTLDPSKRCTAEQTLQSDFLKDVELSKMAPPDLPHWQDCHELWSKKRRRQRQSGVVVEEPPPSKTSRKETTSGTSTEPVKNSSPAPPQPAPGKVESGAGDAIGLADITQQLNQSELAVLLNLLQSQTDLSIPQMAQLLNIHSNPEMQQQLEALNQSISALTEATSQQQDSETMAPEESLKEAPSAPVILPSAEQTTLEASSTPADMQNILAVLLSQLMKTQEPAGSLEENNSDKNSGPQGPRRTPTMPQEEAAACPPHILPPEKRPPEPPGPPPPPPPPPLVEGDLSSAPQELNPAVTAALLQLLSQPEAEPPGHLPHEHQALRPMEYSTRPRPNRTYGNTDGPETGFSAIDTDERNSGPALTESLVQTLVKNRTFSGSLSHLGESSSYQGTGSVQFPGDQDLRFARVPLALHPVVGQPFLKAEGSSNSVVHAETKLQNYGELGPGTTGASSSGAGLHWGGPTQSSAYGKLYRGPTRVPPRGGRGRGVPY
Target sequence in this assay (O75909 whole entry partner, looked up, species assumed): as the sequence (O75909 whole entry partner, looked up, species assumed) above

CDK7 [4] = target: T2, CDK7 (Homo sapiens (Human), UniProt P50613); experiment: Biochemical assay for CDK7, LANCE TR-FRET; conditions: read-out: CDK 7 IC50
Description: The inhibitory activity of the test compounds was assessed by the LANCE TR-FRET assay, which detects the ATP-dependent phosphorylation of an ULight-myelin basic protein (MBP) substrate peptide (100 nM) by CDK7 (10 nM). Briefly, the enzyme reaction was run in reaction buffer (20 mM HEPES (pH 7.5), 10 mM MgCl2, 0.01% Triton x, 100 μM Sodium Orthovanadate, 1 mM DTT). The assay was performed in 384-well plate. The end concentration of the ATP substrate was 1 mM/100 μM, and that of the ULight-MBP substrate peptide was 100 nM, and of CDK7 was 10 nM. Pre-incubation of the compound and enzyme was performed for 60 min at room temperature. After 60 min incubation at room temperature, the reaction was terminated by the addition of 40 mM EDTA and 1 nM Eu-labeled anti-phospho-MBP-binding protein antibody in the buffer. […] The readout was calculated as (acceptor counts/donor counts)×1000. The IC50 values were derived by fitting a sigmoidal dose-response curve to a plot of assay readout over inhibitor concentration.

CDK7 [5] = target: T2, CDK7; experiment: CDK7 target occupancy in Jurkat cells; assay type: cell-based
[6] = ATP 1 mM/100 μM, 60 min pre-incubation

Compound	CDK12 Target Occupancy (Tocc50) μM in Jurkat cells (CDK12 [1]; Jurkat cells) [µM]	Kd (CDK12 [2]) [µM]	IC50 (CDK13) [µM]	Ratio CDK7/CDK13 (CDK13)	Ratio CDK7/CDK12 (CDK12 [3])	IC50 (CDK12 [3]) [µM]	IC50 (CDK7 [4]; [6]) [µM]	Ratio CDK7/CDK12 (CDK12 [1])	Jurkat Cells, CDK12 Target Occ50 (CDK12 [1]; Jurkat cells) [nM]	binding affinity towards CDK12 in comparison to CDK7 (CDK12 [1]; Jurkat cells target occupancy) [fold]	Jurkat Cells, CDK7 Target Occ50 (CDK7 [5]) [nM]	IC50 (CDK7 [4]) [µM]
C=CC(=O)N1CC=C(c2ccc(C(C)C(=O)Nc3cc(C4CC4)[nH]n3)cn2)CC1 (single isomer, unassigned) [Compound 6, 2-(1′-acryloyl-1′,2′,3′,6′-tetrahydro-[2,4′-bipyridin]-5-yl)-N-(5-cyclopropyl-1H-pyrazol-3-yl)propanamide]	0.012	< 0.025	0.006	216.66	32.5	0.04	1.3					
C=CC(=O)N1CCC=C(c2ccc(C(C)C(=O)Nc3cc(C4CC4)[nH]n3)cn2)C1 (single isomer, unassigned) [Compound 37, 2-(1′-acryloyl-1′,2′,5′,6′-tetrahydro-[2,3′-bipyridin]-5-yl)-N-(5-cyclopropyl-1H-pyrazol-3-yl)propanamide]	0.012	< 0.025	0.003			0.029						
C[C@H](C(=O)Nc1cc(C2CC2)[nH]n1)c1ccc(C2=CCN(C(=O)/C=C/CN(C)C)CC2)cc1 [Compound 15, (S,E)-N-(5-cyclopropyl-1H-pyrazol-3-yl)-2-(4-(1-(4-(dimethylamino)but-2-enoyl)-1,2,3,6-tetrahydropyridin-4-yl)phenyl)propanamide]	0.204		0.0188	33.03	2.64	0.235	0.621	8.175	204.4	> 8	1671	
C=CC(=O)N1CCN(c2ccc(C(C)C(=O)Nc3cc(C4CC4)[nH]n3)cc2)CC1 (centres unmarked) [Compound 17, 2-(4-(4-acryloylpiperazin-1-yl)phenyl)-N-(5-cyclopropyl-1H-pyrazol-3-yl)propanamide]	0.030	> 0.1	0.081	98.27	13.49	0.59						7.96
C=CC(=O)N1CCC=C(c2ccc([C@H](C)C(=O)Nc3cc(C4CC4)[nH]n3)cc2)C1 [Compound 34, (S)-2-(4-(1-acryloyl-1,2,5,6-tetrahydropyridin-3-yl)phenyl)-N-(5-cyclopropyl-1H-pyrazol-3-yl)propanamide]	0.050	< 0.025	0.0043			0.189						
C=CC(=O)N1CC=C(c2ccc(CC(=O)Nc3cc(C4CC4)[nH]n3)cn2)C1 [Compound 53, 2-(6-(1-acryloyl-2,5-dihydro-1H-pyrrol-3-yl)pyridin-3-yl)-N-(5-cyclopropyl-1H-pyrazol-3-yl)acetamide]	0.014		0.0009	8655.55	779	0.01	7.79					
